Assays:
Format in all cases: binding
TNKS2 ARC4 = target: T1, TNKS2 ARC4 (Homo sapiens, UniProt Q9H2K2); experiment: Differential scanning fluorimetry (DSF); conditions: ARC 20 μM + 3BP2 TBM peptide 200 μM, inflection point method
T1 construct: The cell was filled with TNKS2 ARC4 (488–649); His6-GST; made in house; host or cells: E. coli
T1 sequence (Q9H2K2 488-649): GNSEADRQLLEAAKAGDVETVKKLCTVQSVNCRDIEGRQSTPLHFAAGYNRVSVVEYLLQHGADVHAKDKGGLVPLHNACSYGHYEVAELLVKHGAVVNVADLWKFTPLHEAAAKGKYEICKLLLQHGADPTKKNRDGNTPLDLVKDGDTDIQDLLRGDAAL
Description: For the experiment shown in Fig. 2A, ARC and 3BP2 TBM peptide concentrations were 20 and 200 μM, respectively, in 50 mM HEPES-NaOH pH 7.5, 100 mM NaCl, 2 mM TCEP and a total volume of 25 μL. SYPRO Orange was added at 5×. Data were recorded from 4–95 °C, with the temperature ramped by 0.5 °C every 15 s, using a CFX384 thermal cycler (Bio-Rad). Data were analysed by non-linear regression in GraphPad Prism using a Boltzmann sigmoid with linear baselines. ΔTm values were determined using the inflection point method.

TNKS2 ARC1 (20–178) = target: T2, TNKS2 ARC1 (20–178) (Homo sapiens, UniProt Q9H2K2); experiment: T2 relaxation-edited ligand-observed NMR assay
T2 construct: TNKS2 ARC1 (20–178); His6-GST; made in house; host or cells: E. coli
Source text: The anticipated functional redundancy between ARCs and the existence of two tankyrase paralogues will require efficient substrate binding antagonists to ideally bind all TBM-binding ARCs of both TNKS and TNKS2. […] We tested binding of compound 9 to all TNKS and TNKS2 ARCs using the relaxation-edited NMR assay (Fig. 4E, Table 3). Compound 9 bound all ARCs, with the exception of TNKS2 ARC1. Given the invariant residue infrastructure of the peptide-binding pocket in ARC1 of TNKS and TNKS2, this observation is difficult to reconcile with available structural information. […]
(§1) Fragments were dispensed in duplicate into a 384-well plate (250 nL, 100 mM stock in DMSO). […] Solutions were transferred to 1.7 mm NMR tubes using a Gilson liquid handling system. ^1H NMR spectra were recorded, with the DMSO and water signals dampened. […] The average integral for all peaks between 6.0–10.0 ppm was calculated, and the difference between compound-only and compound-plus-protein samples was compared. […] For competitive experiments, 3BP2 16-mer peptide (100 μM) was added, and the spectra were recorded and processed as above. The variability in signal reduction in the relaxation-edited experiment was previously determined as approximately ± 10% (Liu et al., unpublished observations).

[1] = target: T3, TNKS2 ARC4 aromatic glycine sandwich (YY536/569AA) (Homo sapiens, UniProt Q9H2K2, Y536A/Y569A); experiment: T2 relaxation-edited NMR with mutant ARC
T3 construct: TNKS2 ARC4 (488–649); His6-GST; made in house; host or cells: E. coli BL21-CodonPlus (DE3)-RIL
Source text: We used three previously designed TNKS2 ARC4 mutant variants[4] to explore potential binding determinants for fragment 9. A WFE591/593/598AAA triple-mutation abrogates three key residues in the “arginine cradle”; YY536/569AA truncates two tyrosine residues that form the “glycine sandwich”, and L560W introduces a bulky residue into the “central patch” that sterically clashes with the TBM peptide (see Fig. 5A,B for locations of the mutated residues). We tested binding of compound 9 to the wild-type and mutant ARCs by ligand-observed NMR, using the relaxation-edited assay (Fig. 5C, Table 4). […] Binding was impaired but not abolished for the “central patch” mutant variant (L560W).
as §1

ΔTm (TNKS2 ARC4)	T2 relaxation-edited: reduction of signal integrals (TNKS2 ARC1 (20–178))	T2 relaxation-edited: reduction of signal integrals [1]	Compound
0.63 °C	–	–	LPHLQRSPPDGQSFRSW [3BP2 16-mer peptide, 16-mer TBM peptide derived from 3BP2, W added for A280, N-terminus acetylated, C-terminus amide-capped; positive control, reference compound]
–	0%	0%	O=C(NCc1ccco1)c1ccc2nccnc2c1 [compound 9]

From publication PMC6911004, “Fragment-based screening identifies molecules targeting the substrate-binding ankyrin repeat domains of tankyrase” (Scientific Reports, 2019)
